In ChEMBL document CHEMBL1123483, “Inhibition of chicken liver dihydrofolate reductase by 5-(substituted benzyl)-2,4-diaminopyrimidines. A quantitative structure-activity relationship and graphics analysis” (J Med Chem, 1986) one finds logD data, which are given here for 15 compounds.

The data set can be described thus: Partition coefficient (logD) (aqueous phase 0.1 N HCl). Type of data set: physicochemical.
[1] abbreviates: 0.1 N HCl (aqueous phase), read-out: logD.

Broadly, the logD is lipophilicity at a set pH, counting ionised and neutral species.

Regarding `COc1ccc(Cc2cnc(N)nc2N)cc1`, the logD under setting [1] amounted to 1.34.
For `Nc1ccc(Cc2cnc(N)nc2N)cc1`, the logD under setting [1] was found to be 0.26.
Consider `COc1cc(Cc2cnc(N)nc2N)cc(OC)c1`, for which the logD under setting [1] came out at 1.6.
As for `COCCOc1cccc(Cc2cnc(N)nc2N)c1`, the logD under setting [1] is -1.33.
Turning to `COCCOc1ccc(Cc2cnc(N)nc2N)cc1OCCOC`, the logD (octanol/water) was -1.89.
As to `Nc1ncc(Cc2ccc3c(c2)OCO3)c(N)n1`, the log distribution coefficient (logD) under setting [1] was found to be 1.52.
On the same count and under the same terms, in the case of `CCCCCCCCOc1cc(Cc2cnc(N)nc2N)ccc1OC` it was 2.55; in that of `CCc1cc(Cc2cnc(N)nc2N)cc(CC)c1CC`, 1.55; in that of `C=C(C)c1c(OC)cc(Cc2cnc(N)nc2N)cc1OC`, 3.07.
Take `CCOc1cc(Cc2cnc(N)nc2N)cc(OCC)c1`: under setting [1], the logD was found to be 2.52.
Still for that read-out and setting: in the case of `COc1cc(Cc2cnc(N)nc2N)cc(OC)c1N(C)C` [ADITOPRIM] it was 1.51.
Turning to `COc1cc(Cc2cnc(N)nc2N)cc(OC)c1Br` [BRODIMOPRIM], under setting [1], the logD was 2.04.
For `COc1ccc(Cc2cnc(N)nc2N)cc1OC` [DIAVERIDINE], under setting [1], the logD came to 1.
Regarding `COc1cc(Cc2cnc(N)nc2N)cc(OC)c1SC` [METIOPRIM], the logD under setting [1] is 1.6.
The same measure, in the same setting: in the case of `COCCOc1c(OC)cc(Cc2cnc(N)nc2N)cc1OC` [TETROXOPRIM] it was -1.81.
